Patent US5013722A, “Cholecystokinin analogs for controlling appetite” (Hoffmann-LaRoche Inc., priority 1989, dated 1991)
“Also recorded” adds a separate entry of the source. Where a SMILES comes first, the peptide text is derived from it. [ ]: non-standard residue; d: D form. Thr(SO3H) = C[C@@H](OS(=O)(=O)O)[C@H](N)C(=O)O; sY = N[C@@H](Cc1ccc(OS(=O)(=O)O)cc1)C(=O)O; NMeF = CN[C@@H](Cc1ccccc1)C(=O)O

What was measured:
[1] = molecular target: T1, receptors in bovine striatum (3H-CCK-8-(SO3 H) binding, central receptor) (Bos taurus, UniProt P79266); assay: In vitro receptor binding assay, bovine striatum homogenate, 3H-CCK-8-(SO3H) radioligand; conditions: 0.15 nM radioligand, 30 min, 25° C.; read-out: Bovine Striatum IC50 (inhibition of specific 3H-CCK-8-(SO3H) binding)
T1 construct: receptors in homogenized preparations of rat pancreatic cells and bovine striata; from tissue; host or cells: bovine striatum homogenate (48,000 x g pellet)
T1 sequence (P79266 1-454): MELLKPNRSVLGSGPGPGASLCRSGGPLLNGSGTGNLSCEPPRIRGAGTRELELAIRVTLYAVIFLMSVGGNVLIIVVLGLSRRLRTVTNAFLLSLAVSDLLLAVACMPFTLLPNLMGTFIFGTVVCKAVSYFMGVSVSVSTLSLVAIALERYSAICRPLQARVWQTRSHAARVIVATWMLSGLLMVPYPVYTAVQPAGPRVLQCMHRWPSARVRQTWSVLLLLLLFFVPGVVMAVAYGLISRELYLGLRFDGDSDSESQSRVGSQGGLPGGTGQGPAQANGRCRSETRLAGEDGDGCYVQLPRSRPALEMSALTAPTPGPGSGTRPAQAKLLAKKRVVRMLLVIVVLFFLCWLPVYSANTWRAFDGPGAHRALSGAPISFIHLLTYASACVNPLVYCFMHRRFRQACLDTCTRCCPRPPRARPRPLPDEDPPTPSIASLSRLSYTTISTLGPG
Description: Frozen bovine striatum (approx. 5 g) and fresh rat pancreas (approx. 5 g) cleaned of fat and extraneous tissue were homogenized in HEPES buffer #1 (10 mM HEPES+130 mM NaCl+5 mM MgCl2. pH 7.4) using 35 parts buffer per 1 part tissue on a wet weight/volume basis (approx. 175 ml). The tissue was homogenized 2 x for approx. 15 sec. at 0° C. using a Polytron homogenizer at a setting of 6. The tissue was isolated by centrifugation at 48,000 x g for 10 min. at 0° C. The resulting tissue pellet was resuspended in HEPES buffer #2 (10 mM HEPES+130 mM NaCl+5 mM MgCl2 +1 mg/L phenylmethanesulfonyl fluoride (PMSF)+200 mg/L Bacitracin): 1 part striatal tissue (original wet weight) per 80 parts buffer and 1 part pancreas tissue (original wet weight) per 70 parts buffer.
Incubation was initiated by combining various concentrations of native CCK-8 or peptides of formula I, II and III with ^3 H-CCK-8-(SO3 H) (final conc.=0.15 nM) and tissue homogenate (striatum 0.26 mg protein in 2 ml final volume; pancreas 0.165 mg protein in 1 ml final volume). Samples were incubated for 30 min. at 25° C. and the incubation terminated by pouring the mixture onto a pre-wet Whatman GF/B filter on a Sandbeck Vacuum Filtration Manifold. The incubation tubes were washed with 2×3 ml of ice-cold HEPES Buffer #2 and the wash filtered through the GF/B filter. The filter was air dried for 10 min. and then placed in a scintillation vial with 12 ml of Beckman HP/b Ready-Solv scintillation cocktail. The vials were shaken for 2 hours and then counted using a Beckman Model 7800 liquid scintillation spectrometer. Non-specific binding was determined in the presence of 1 micromole native CCK-8 and subtracted from all samples to determine specific binding. The concentration of ^3 peptide necessary to inhibit 50% of total specific H-CCK-8-(SO3 H) binding (IC50 value) was determined by log-probit analysis.

Male rats, food intake = assay: Two-meal feeding assay, intranasal administration; assay type: in vivo, rat; conditions: for Food Intake 1st meal (%) / Food Intake 2nd meal (%): saline = 100
Description: (§1) Male Sprague-Dawley (CD) rats weighing 180-200 grams (Charles River Breeding Laboratories) were acclimated to a 12 h light/dark cycle (6 a.m. to 6 p.m.) in a room kept at 22° C. They were subsequently fasted for two days, weighed, placed in individual cages, and a four-day period of meal training was begun. During this time the rats were given ground laboratory chow (Purina Lab Chow) in jars for one hour from 9:00 a.m. until 10:00 a.m., the jars were removed from 10:00 a.m. to 12:00 p.m., and placed back in the cages from 12:00 until 1:00 p.m. Under this `1-2-1` meal feeding regime most rats learn to eat approximately as much Per day during the two hours they have access to food as rats which have food ad libitum over the entire 24-hour day. On the fourth day, the rats were weighed again, and any which lost more than five grams body weight were excluded from the test. The animals were then distributed into experimental (n=5 to 6) and control groups (n=6-12). but not matched for body weight.
Male rats were meal trained as described in Example 9. The peptide of Example 2 was dissolved in saline and was administered to the rats intranasally. CCK-8, dissolved in saline was used as a control.

[2] = tested on: Male Sprague-Dawley (CD) rats, food intake; assay: Two-meal feeding assay, intraperitoneal administration; assay type: in vivo, rat
Description: as §1
Peptides of the invention were suspended either in saline. if soluble, or in 1% gum arabic, if insoluble, at concentrations of 0 to 320 μg/ml/kg body weight and were administered intraperitonerally 15 min before the first meal on day 5 of meal feeding. The rats were then given their meals as they had been during the previous four days, and the food cups were weighed both before and after each meal to determine food consumption. Food intake was expressed as a mean and standard error of the mean in grams consumed or as a percent of control values for the various groups. The treated groups were compared to the control groups by t-test analysis. […]

[3] = molecular target: T2, Rat kidney metalloendopeptidase (Rattus norvegicus, UniProt P07861); assay: Degradation by rat kidney metalloendopeptidase (HPLC); assay type: in vitro ADME; conditions: for % Degradation by Height: 37° C., pH 7.6
T2 construct: from tissue; host or cells: rat kidney
T2 sequence (P07861 1-750): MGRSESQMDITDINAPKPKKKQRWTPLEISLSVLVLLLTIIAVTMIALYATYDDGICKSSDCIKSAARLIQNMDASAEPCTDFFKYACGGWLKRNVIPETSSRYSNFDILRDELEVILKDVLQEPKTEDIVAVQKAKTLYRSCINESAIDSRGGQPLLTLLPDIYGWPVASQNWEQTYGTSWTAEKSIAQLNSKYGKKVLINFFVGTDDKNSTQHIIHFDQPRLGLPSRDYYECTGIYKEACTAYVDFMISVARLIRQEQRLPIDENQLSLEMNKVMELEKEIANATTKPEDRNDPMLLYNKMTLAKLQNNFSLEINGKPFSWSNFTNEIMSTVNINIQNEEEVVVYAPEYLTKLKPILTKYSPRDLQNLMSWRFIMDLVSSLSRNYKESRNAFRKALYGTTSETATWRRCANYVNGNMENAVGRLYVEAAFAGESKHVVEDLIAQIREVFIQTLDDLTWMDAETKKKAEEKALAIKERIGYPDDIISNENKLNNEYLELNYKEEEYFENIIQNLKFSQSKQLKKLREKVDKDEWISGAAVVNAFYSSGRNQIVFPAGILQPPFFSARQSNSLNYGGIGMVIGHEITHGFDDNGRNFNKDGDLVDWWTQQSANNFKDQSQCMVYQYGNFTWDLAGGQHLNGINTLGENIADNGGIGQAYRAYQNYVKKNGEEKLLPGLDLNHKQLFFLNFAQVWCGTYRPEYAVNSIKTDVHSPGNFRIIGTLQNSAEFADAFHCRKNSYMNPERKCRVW
Description: Rat kidney metalloendopeptidase (0.01 μg) and 5 nmol of peptide were incubated in 2 μmol tris-HCl buffer (pH 7.6) and at 37° C. for varying periods of time. The degradation of the peptide was monitored by analytical HPLC on a 5 micron Adsorbosphere-ODS column with a 0-50% CH3 CN gradient in 0.1N potassium phosphate, pH 3.0, with UV detection at 210 nm. Rates are based on presumed production of Asp-Tyr(SO3 H)-Met-Gly for CCK-8 and the presumed production of Ac-Tyr(SO3 H)-Met-Gly for Example 2 and 3.

SMILES: CSCC[C@H](NC(=O)[C@H](Cc1ccc(OS(=O)(=O)O)cc1)NC(C)=O)C(=O)NCC(=O)N[C@@H](Cc1c[nH]c2ccccc12)C(=O)N[C@@H](CCSC)C(=O)N[C@H](C(=O)N(C)[C@@H](Cc1ccccc1)C(N)=O)[C@@H](C)OS(=O)(=O)O [Example 2, Ac-Tyr(SO3 H)-Met-Gly-Trp-Met-Thr(SO3 H)-N-methyl-Phe-NH2] (Ac-[sY]MGWM[Thr(SO3H)][NMeF]-NH2)
- IC50 [1]: 100 to 500 nM
- Food Intake 1st meal Grams consumed (Male rats, food intake; 3 μg/kg intranasal): 7.5 ± 0.8 Grams
- Food Intake 2nd meal Grams consumed (Male rats, food intake; 3 μg/kg intranasal): 6.1 ± 0.3 Grams
- Food Intake 1st meal (%) (Male rats, food intake; 3 μg/kg intranasal): 102%
- Food Intake 2nd meal (%) (Male rats, food intake; 3 μg/kg intranasal): 109%
- Food Intake 1st meal Grams consumed (Male rats, food intake; 10 μg/kg intranasal): 5.5 ± 0.6 Grams
- Food Intake 2nd meal Grams consumed (Male rats, food intake; 10 μg/kg intranasal): 6.3 ± 0.4 Grams
- Food Intake 1st meal (%) (Male rats, food intake; 10 μg/kg intranasal): 74%
- Food Intake 2nd meal (%) (Male rats, food intake; 10 μg/kg intranasal): 112%
- Food Intake 1st meal Grams consumed (Male rats, food intake; 30 μg/kg intranasal): 5.8 ± 0.7 Grams
- Food Intake 2nd meal Grams consumed (Male rats, food intake; 30 μg/kg intranasal): 4.3 ± 0.6 Grams
- Food Intake 1st meal (%) (Male rats, food intake; 30 μg/kg intranasal): 78%
- Food Intake 2nd meal (%) (Male rats, food intake; 30 μg/kg intranasal): 76%
- Food Intake 1st meal Grams consumed (Male rats, food intake; 100 μg/kg intranasal): 3.4 ± 0.4 Grams
- Food Intake 2nd meal Grams consumed (Male rats, food intake; 100 μg/kg intranasal): 4.6 ± 0.5 Grams
- Food Intake 1st meal (%) (Male rats, food intake; 100 μg/kg intranasal): 46%
- Food Intake 2nd meal (%) (Male rats, food intake; 100 μg/kg intranasal): 82%
- Food Intake 1st Meal ([2]; 32 microgm/Kg i.p., 15 min before first meal, mean ± SEM): 8 ± 1 % of Control
- Food Intake 2nd Meal ([2]; 32 microgm/Kg i.p., mean ± SEM): 26 ± 4 % of Control
- Food intake suppression over dosage range compared with CCK-8 (FIG. 1) ([2]; first meal, i.p., dosage range of FIG. 1): effectively reduced food intake during the first meal at a much lower dosage range than did CCK-8; also recorded: effectively suppresses food intake in rats at a lower dosage than does CCK-8
- % Degradation by Height ([3]; incubation 0 min): 0%
- % Degradation by Height ([3]; incubation 60 min): 19.4%
- % Degradation by Height ([3]; incubation 120 min): 30.3%
- No. of Peaks (degradation products) ([3]; incubation 240 min): 2
- % Degradation by Height ([3]; incubation 240 min): 56.4%
